The supplement of paper PMC10307832

Assays:
Assay in all cases: relative viability (nuclei count vs DMSO), 5 days (fraction); higher = more cells survive
EPLC-272H = tested on: EPLC-272H
Outline: (§1)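 For relative viability, nuclei counts in treated wells were divided by those in vehicle wells. Lung cancer cell lines had been pin-tool dosed in 1536-well plates the day after seeding and cultured for 5 days, then fixed and stained in one step (final 0.05% Triton X-100, 1% formaldehyde, 1 ug/ml Hoechst) and imaged at 4×. Doses were one drug alone or a fixed anchor-drug dose plus five library-drug doses (not always all listed) in √10 steps, and values are duplicate-plate medians.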

EMC-BAC-2 = tested on: EMC-BAC-2
Outline: as §1

NCI-H1355 = tested on: NCI-H1355
Outline: as §1

NCI-H2085 = tested on: NCI-H2085
Outline: as §1

NCI-H520 = tested on: NCI-H520
Outline: as §1

NCI-H2405 = tested on: NCI-H2405
Outline: as §1

UMC-11 = tested on: UMC-11
Outline: as §1

H3255 = tested on: H3255
Outline: as §1

NCI-H322M = tested on: NCI-H322M
Outline: as §1

ChaGo-K-1 = tested on: ChaGo-K-1
Outline: as §1

NCI-H650 = tested on: NCI-H650
Outline: as §1

HCC-827 = tested on: HCC-827
Outline: as §1

NCI-H1944 = tested on: NCI-H1944
Outline: as §1

LCLC-97TM1 = tested on: LCLC-97TM1
Outline: as §1

NCI-H2087 = tested on: NCI-H2087
Outline: as §1

HCC-44 = tested on: HCC-44
Outline: as §1

NCI-H1395 = tested on: NCI-H1395
Outline: as §1

NCI-H1651 = tested on: NCI-H1651
Outline: as §1

LCLC-103H = tested on: LCLC-103H
Outline: as §1

NCI-H1993 = tested on: NCI-H1993
Outline: as §1

SK-MES-1 = tested on: SK-MES-1
Outline: as §1

NCI-H23 = tested on: NCI-H23
Outline: as §1

NCI-H1793 = tested on: NCI-H1793
Outline: as §1

Work on `Clc1ccc(Nc2nnc(Cc3ccncc3)c3ccccc23)cc1` [Vatalanib] + Cc1cc(Nc2cc(N3CCN(C)CC3)nc(Sc3ccc(NC(=O)C4CC4)cc3)n2)n[nH]1 [Tozasertib] (partner 0.1 µM) yielded a relative viability (EPLC-272H; first compound 0.04 µM) of 0.319, a relative viability (EPLC-272H; first compound 0.1265 µM) of 0.271 and a relative viability (EPLC-272H; first compound 0.4 µM) of 0.411. The relative viability (EPLC-272H; first compound 1.265 µM) was 0.324, the relative viability (EPLC-272H; first compound 4 µM) was 0.249 and the relative viability (EMC-BAC-2; first compound 0.04 µM) was 0.218. For the same compound, the relative viability (EMC-BAC-2; first compound 0.1265 µM) was 0.302, the relative viability (EMC-BAC-2; first compound 0.4 µM) was 0.308 and the relative viability (EMC-BAC-2; first compound 1.265 µM) was 0.264. For the same compound, the relative viability (EMC-BAC-2; first compound 4 µM) was 0.305, the relative viability (NCI-H1355; first compound 0.04 µM) was 0.585 and the relative viability (NCI-H1355; first compound 0.1265 µM) was 0.58. For the same compound, the relative viability (NCI-H1355; first compound 0.4 µM) was 0.664, the relative viability (NCI-H1355; first compound 1.265 µM) was 0.462 and the relative viability (NCI-H1355; first compound 4 µM) was 0.521. The relative viability (NCI-H2085; first compound 0.04 µM) was 0.796, the relative viability (NCI-H2085; first compound 0.1265 µM) was 0.831 and the relative viability (NCI-H2085; first compound 0.4 µM) was 0.829. It also gave a relative viability (NCI-H2085; first compound 1.265 µM) of 0.744, a relative viability (NCI-H2085; first compound 4 µM) of 0.637 and a relative viability (NCI-H520; first compound 0.04 µM) of 0.443. The relative viability (NCI-H520; first compound 0.1265 µM) was 0.385, the relative viability (NCI-H520; first compound 0.4 µM) was 0.467 and the relative viability (NCI-H520; first compound 1.265 µM) was 0.443. For the same compound, the relative viability (NCI-H520; first compound 4 µM) was 0.422, the relative viability (NCI-H2405; first compound 0.04 µM) was 0.798 and the relative viability (NCI-H2405; first compound 0.1265 µM) was 0.726. For the same compound, the relative viability (NCI-H2405; first compound 1.265 µM) was 0.627, the relative viability (NCI-H2405; first compound 4 µM) was 0.663 and the relative viability (UMC-11; first compound 0.04 µM) was 0.198. It also gave a relative viability (UMC-11; first compound 0.1265 µM) of 0.206, a relative viability (UMC-11; first compound 0.4 µM) of 0.147 and a relative viability (UMC-11; first compound 1.265 µM) of 0.214. It also gave a relative viability (UMC-11; first compound 4 µM) of 0.205, a relative viability (H3255; first compound 0.04 µM) of 0.626 and a relative viability (H3255; first compound 0.1265 µM) of 0.619. The relative viability (H3255; first compound 0.4 µM) was 0.637, the relative viability (H3255; first compound 1.265 µM) was 0.75 and the relative viability (H3255; first compound 4 µM) was 0.63. For the same compound, the relative viability (NCI-H322M; first compound 0.04 µM) was 0.446, the relative viability (NCI-H322M; first compound 0.1265 µM) was 0.441 and the relative viability (NCI-H322M; first compound 0.4 µM) was 0.553. It also gave a relative viability (NCI-H322M; first compound 1.265 µM) of 0.479, a relative viability (NCI-H322M; first compound 4 µM) of 0.463 and a relative viability (ChaGo-K-1; first compound 0.04 µM) of 0.241. For the same compound, the relative viability (ChaGo-K-1; first compound 0.1265 µM) was 0.231, the relative viability (ChaGo-K-1; first compound 0.4 µM) was 0.242 and the relative viability (ChaGo-K-1; first compound 1.265 µM) was 0.235. It also gave a relative viability (ChaGo-K-1; first compound 4 µM) of 0.235, a relative viability (NCI-H650; first compound 0.04 µM) of 0.81 and a relative viability (NCI-H650; first compound 0.1265 µM) of 0.655. The relative viability (NCI-H650; first compound 1.265 µM) was 0.718, the relative viability (NCI-H650; first compound 4 µM) was 0.631 and the relative viability (HCC-827; first compound 0.04 µM) was 0.378. It also gave a relative viability (HCC-827; first compound 0.1265 µM) of 0.423, a relative viability (HCC-827; first compound 0.4 µM) of 0.463 and a relative viability (HCC-827; first compound 1.265 µM) of 0.429. The relative viability (HCC-827; first compound 4 µM) was 0.367, the relative viability (NCI-H1944; first compound 0.04 µM) was 0.267 and the relative viability (NCI-H1944; first compound 0.1265 µM) was 0.247. The relative viability (NCI-H1944; first compound 0.4 µM) was 0.262, the relative viability (NCI-H1944; first compound 1.265 µM) was 0.266 and the relative viability (NCI-H1944; first compound 4 µM) was 0.235. For the same compound, the relative viability (LCLC-97TM1; first compound 0.04 µM) was 0.301, the relative viability (LCLC-97TM1; first compound 0.1265 µM) was 0.196 and the relative viability (LCLC-97TM1; first compound 0.4 µM) was 0.237. The relative viability (LCLC-97TM1; first compound 1.265 µM) was 0.21, the relative viability (LCLC-97TM1; first compound 4 µM) was 0.263 and the relative viability (NCI-H2087; first compound 0.04 µM) was 0.254. It also gave a relative viability (NCI-H2087; first compound 0.1265 µM) of 0.261, a relative viability (NCI-H2087; first compound 0.4 µM) of 0.295 and a relative viability (NCI-H2087; first compound 1.265 µM) of 0.228. The relative viability (NCI-H2087; first compound 4 µM) was 0.253, the relative viability (HCC-44; first compound 0.04 µM) was 1.1 and the relative viability (HCC-44; first compound 0.1265 µM) was 0.887. The relative viability (HCC-44; first compound 0.4 µM) was 0.91, the relative viability (HCC-44; first compound 1.265 µM) was 0.907 and the relative viability (HCC-44; first compound 4 µM) was 0.815. For the same compound, the relative viability (NCI-H1395; first compound 0.04 µM) was 0.734, the relative viability (NCI-H1395; first compound 0.1265 µM) was 0.75 and the relative viability (NCI-H1395; first compound 0.4 µM) was 0.747. For the same compound, the relative viability (NCI-H1395; first compound 1.265 µM) was 0.648, the relative viability (NCI-H1395; first compound 4 µM) was 0.792 and the relative viability (NCI-H1651; first compound 0.04 µM) was 0.845. It also gave a relative viability (NCI-H1651; first compound 0.1265 µM) of 0.668, a relative viability (NCI-H1651; first compound 0.4 µM) of 0.701 and a relative viability (NCI-H1651; first compound 1.265 µM) of 0.667. For the same compound, the relative viability (NCI-H1651; first compound 4 µM) was 0.629, the relative viability (LCLC-103H; first compound 0.04 µM) was 0.482 and the relative viability (LCLC-103H; first compound 0.1265 µM) was 0.518. The relative viability (LCLC-103H; first compound 0.4 µM) was 0.532, the relative viability (LCLC-103H; first compound 1.265 µM) was 0.503 and the relative viability (LCLC-103H; first compound 4 µM) was 0.502. For the same compound, the relative viability (NCI-H1993; first compound 0.04 µM) was 0.563, the relative viability (NCI-H1993; first compound 0.1265 µM) was 0.566 and the relative viability (NCI-H1993; first compound 0.4 µM) was 0.608. It also gave a relative viability (NCI-H1993; first compound 1.265 µM) of 0.542, a relative viability (NCI-H1993; first compound 4 µM) of 0.592 and a relative viability (SK-MES-1; first compound 0.04 µM) of 0.951. For the same compound, the relative viability (SK-MES-1; first compound 0.1265 µM) was 0.897, the relative viability (SK-MES-1; first compound 0.4 µM) was 1.01 and the relative viability (SK-MES-1; first compound 1.265 µM) was 0.813. For the same compound, the relative viability (SK-MES-1; first compound 4 µM) was 0.803, the relative viability (NCI-H23; first compound 0.04 µM) was 0.435 and the relative viability (NCI-H23; first compound 0.1265 µM) was 0.373. It also gave a relative viability (NCI-H23; first compound 0.4 µM) of 0.364, a relative viability (NCI-H23; first compound 1.265 µM) of 0.314 and a relative viability (NCI-H23; first compound 4 µM) of 0.578. It also gave a relative viability (NCI-H1793; first compound 0.04 µM) of 0.342, a relative viability (NCI-H1793; first compound 0.1265 µM) of 0.341 and a relative viability (NCI-H1793; first compound 0.4 µM) of 0.364. The relative viability (NCI-H1793; first compound 1.265 µM) was 0.276 and the relative viability (NCI-H1793; first compound 4 µM) was 0.329.
